{
  "source": "paper PMC9817970",
  "about": "(Cancers, 2022)",
  "test_in_all_cases": "Kinase panel profiling",
  "format_in_all_cases": "biochemical",
  "conditions_in_all_cases": "10 μM ATP",
  "key": {"ABL2/ARG": {"biological_target": "T1, ABL2/ARG (Homo sapiens, UniProt P42684)", "T1 construct": "purchased Reaction Biology Corp", "experimental": "(§1) Kinase panel profiling was conducted by Reaction Biology Corp. (San Diego, CA, USA). A single dose (1.0 μM) of 6r was tested against 371 recombinant human kinases in the presence of 10 μM ATP."}, "AKT1": {"biological_target": "T2, AKT1 (Homo sapiens, UniProt P31749)", "T2 construct": "purchased Reaction Biology Corp", "experimental": "as §1"}, "ALK5/TGFBR1": {"biological_target": "T3, ALK5/TGFBR1 (Homo sapiens, UniProt P36897)", "T3 construct": "purchased Reaction Biology Corp", "experimental": "as §1"}, "ARAF": {"biological_target": "T4, ARAF (Homo sapiens, UniProt P10398)", "T4 construct": "purchased Reaction Biology Corp", "experimental": "as §1"}, "AXL": {"biological_target": "T5, AXL (Homo sapiens, UniProt P30530)", "T5 construct": "purchased Reaction Biology Corp", "experimental": "as §1"}, "CDK5/p35": {"biological_target": "T6, CDK5/p35 (Homo sapiens, UniProt Q00535)", "T6 construct": "purchased Reaction Biology Corp", "experimental": "as §1"}, "CHK1": {"biological_target": "T7, CHK1 (Homo sapiens, UniProt O14757)", "T7 construct": "purchased Reaction Biology Corp", "T7 sequence (O14757 whole entry)": "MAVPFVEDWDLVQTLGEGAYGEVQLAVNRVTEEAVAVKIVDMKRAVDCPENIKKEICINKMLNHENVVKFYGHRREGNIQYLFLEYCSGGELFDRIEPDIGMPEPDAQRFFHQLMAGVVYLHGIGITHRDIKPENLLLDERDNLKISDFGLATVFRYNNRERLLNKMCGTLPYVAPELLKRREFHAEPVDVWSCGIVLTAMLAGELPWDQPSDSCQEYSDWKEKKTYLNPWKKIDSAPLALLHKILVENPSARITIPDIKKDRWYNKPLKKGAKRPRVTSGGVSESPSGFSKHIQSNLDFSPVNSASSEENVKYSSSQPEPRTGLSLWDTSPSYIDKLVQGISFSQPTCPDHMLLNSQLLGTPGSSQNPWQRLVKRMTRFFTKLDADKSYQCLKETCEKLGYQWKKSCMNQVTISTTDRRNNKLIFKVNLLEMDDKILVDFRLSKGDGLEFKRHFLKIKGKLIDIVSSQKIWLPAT", "experimental": "as §1"}, "CK1g2": {"biological_target": "T8, CK1g2 (Homo sapiens, UniProt P78368)", "T8 construct": "purchased Reaction Biology Corp", "experimental": "as §1"}, "DAPK2": {"biological_target": "T9, DAPK2 (Homo sapiens, UniProt Q9UIK4)", "T9 construct": "purchased Reaction Biology Corp", "experimental": "as §1"}, "EPHA4": {"biological_target": "T10, EPHA4 (Homo sapiens, UniProt P54764)", "T10 construct": "purchased Reaction Biology Corp", "experimental": "as §1"}, "EPHB1": {"biological_target": "T11, EPHB1 (Homo sapiens, UniProt P54762)", "T11 construct": "purchased Reaction Biology Corp", "experimental": "as §1"}, "FMS": {"biological_target": "T12, FMS (Homo sapiens, UniProt P07333)", "T12 construct": "purchased Reaction Biology Corp", "T12 sequence (P07333 20-972)": "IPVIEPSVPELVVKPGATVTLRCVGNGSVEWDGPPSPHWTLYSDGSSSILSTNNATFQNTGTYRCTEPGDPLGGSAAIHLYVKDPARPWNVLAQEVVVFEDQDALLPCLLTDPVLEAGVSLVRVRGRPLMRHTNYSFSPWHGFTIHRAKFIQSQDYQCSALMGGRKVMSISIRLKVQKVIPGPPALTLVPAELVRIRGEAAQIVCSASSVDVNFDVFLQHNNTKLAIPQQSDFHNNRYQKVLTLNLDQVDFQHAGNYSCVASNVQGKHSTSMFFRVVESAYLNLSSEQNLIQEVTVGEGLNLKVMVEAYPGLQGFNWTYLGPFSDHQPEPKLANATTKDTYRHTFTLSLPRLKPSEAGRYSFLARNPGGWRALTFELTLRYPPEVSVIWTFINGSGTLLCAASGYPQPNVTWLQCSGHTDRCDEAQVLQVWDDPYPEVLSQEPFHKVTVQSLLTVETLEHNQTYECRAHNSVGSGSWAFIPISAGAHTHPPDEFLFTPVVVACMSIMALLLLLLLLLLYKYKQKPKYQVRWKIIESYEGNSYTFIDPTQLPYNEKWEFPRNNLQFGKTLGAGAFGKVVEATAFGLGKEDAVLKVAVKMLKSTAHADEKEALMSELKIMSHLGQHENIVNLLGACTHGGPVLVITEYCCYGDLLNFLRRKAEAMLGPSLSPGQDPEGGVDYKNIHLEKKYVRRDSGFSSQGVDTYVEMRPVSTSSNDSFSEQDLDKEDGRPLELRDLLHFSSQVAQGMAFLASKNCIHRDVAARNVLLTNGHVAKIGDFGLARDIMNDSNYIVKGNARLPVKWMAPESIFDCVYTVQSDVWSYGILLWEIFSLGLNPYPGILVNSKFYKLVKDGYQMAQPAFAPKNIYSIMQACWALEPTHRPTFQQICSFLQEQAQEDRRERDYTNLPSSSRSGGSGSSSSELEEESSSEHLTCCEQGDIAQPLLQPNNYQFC", "experimental": "as §1"}, "GLK/MAP4K3": {"biological_target": "T13, GLK/MAP4K3 (Homo sapiens, UniProt Q8IVH8)", "T13 construct": "purchased Reaction Biology Corp", "experimental": "as §1"}, "GRK5": {"biological_target": "T14, GRK5 (Homo sapiens, UniProt P34947)", "T14 construct": "purchased Reaction Biology Corp", "experimental": "as §1"}, "HPK1/MAP4K1": {"biological_target": "T15, HPK1/MAP4K1 (Homo sapiens, UniProt Q92918)", "T15 construct": "purchased Reaction Biology Corp", "experimental": "as §1"}, "IKKe/IKBKE": {"biological_target": "T16, IKKe/IKBKE (Homo sapiens, UniProt Q14164)", "T16 construct": "purchased Reaction Biology Corp", "experimental": "as §1"}, "IRAK1": {"biological_target": "T17, IRAK1 (Homo sapiens, UniProt P51617)", "T17 construct": "purchased Reaction Biology Corp", "experimental": "as §1"}, "ITK": {"biological_target": "T18, ITK (Homo sapiens, UniProt Q08881)", "T18 construct": "purchased Reaction Biology Corp", "experimental": "as §1"}, "JNK2": {"biological_target": "T19, JNK2 (Homo sapiens, UniProt P45984)", "T19 construct": "purchased Reaction Biology Corp", "experimental": "as §1"}, "LATS1": {"biological_target": "T20, LATS1 (Homo sapiens, UniProt O95835)", "T20 construct": "purchased Reaction Biology Corp", "experimental": "as §1"}, "LOK/STK10": {"biological_target": "T21, LOK/STK10 (Homo sapiens, UniProt O94804)", "T21 construct": "purchased Reaction Biology Corp", "experimental": "as §1"}, "MAK": {"biological_target": "T22, MAK (Homo sapiens, UniProt P20794)", "T22 construct": "purchased Reaction Biology Corp", "experimental": "as §1"}, "MEKK1": {"biological_target": "T23, MEKK1 (Homo sapiens, UniProt Q13233)", "T23 construct": "purchased Reaction Biology Corp", "experimental": "as §1"}, "MELK": {"biological_target": "T24, MELK (Homo sapiens, UniProt Q14680)", "T24 construct": "purchased Reaction Biology Corp", "experimental": "as §1"}, "MST1/STK4": {"biological_target": "T25, MST1/STK4 (Homo sapiens, UniProt Q13043)", "T25 construct": "purchased Reaction Biology Corp", "experimental": "as §1"}, "MUSK": {"biological_target": "T26, MUSK (Homo sapiens, UniProt O15146)", "T26 construct": "purchased Reaction Biology Corp", "experimental": "as §1"}, "MYO3A": {"biological_target": "T27, MYO3A (Homo sapiens, UniProt Q8NEV4)", "T27 construct": "purchased Reaction Biology Corp", "T27 sequence (Q8NEV4 whole entry)": "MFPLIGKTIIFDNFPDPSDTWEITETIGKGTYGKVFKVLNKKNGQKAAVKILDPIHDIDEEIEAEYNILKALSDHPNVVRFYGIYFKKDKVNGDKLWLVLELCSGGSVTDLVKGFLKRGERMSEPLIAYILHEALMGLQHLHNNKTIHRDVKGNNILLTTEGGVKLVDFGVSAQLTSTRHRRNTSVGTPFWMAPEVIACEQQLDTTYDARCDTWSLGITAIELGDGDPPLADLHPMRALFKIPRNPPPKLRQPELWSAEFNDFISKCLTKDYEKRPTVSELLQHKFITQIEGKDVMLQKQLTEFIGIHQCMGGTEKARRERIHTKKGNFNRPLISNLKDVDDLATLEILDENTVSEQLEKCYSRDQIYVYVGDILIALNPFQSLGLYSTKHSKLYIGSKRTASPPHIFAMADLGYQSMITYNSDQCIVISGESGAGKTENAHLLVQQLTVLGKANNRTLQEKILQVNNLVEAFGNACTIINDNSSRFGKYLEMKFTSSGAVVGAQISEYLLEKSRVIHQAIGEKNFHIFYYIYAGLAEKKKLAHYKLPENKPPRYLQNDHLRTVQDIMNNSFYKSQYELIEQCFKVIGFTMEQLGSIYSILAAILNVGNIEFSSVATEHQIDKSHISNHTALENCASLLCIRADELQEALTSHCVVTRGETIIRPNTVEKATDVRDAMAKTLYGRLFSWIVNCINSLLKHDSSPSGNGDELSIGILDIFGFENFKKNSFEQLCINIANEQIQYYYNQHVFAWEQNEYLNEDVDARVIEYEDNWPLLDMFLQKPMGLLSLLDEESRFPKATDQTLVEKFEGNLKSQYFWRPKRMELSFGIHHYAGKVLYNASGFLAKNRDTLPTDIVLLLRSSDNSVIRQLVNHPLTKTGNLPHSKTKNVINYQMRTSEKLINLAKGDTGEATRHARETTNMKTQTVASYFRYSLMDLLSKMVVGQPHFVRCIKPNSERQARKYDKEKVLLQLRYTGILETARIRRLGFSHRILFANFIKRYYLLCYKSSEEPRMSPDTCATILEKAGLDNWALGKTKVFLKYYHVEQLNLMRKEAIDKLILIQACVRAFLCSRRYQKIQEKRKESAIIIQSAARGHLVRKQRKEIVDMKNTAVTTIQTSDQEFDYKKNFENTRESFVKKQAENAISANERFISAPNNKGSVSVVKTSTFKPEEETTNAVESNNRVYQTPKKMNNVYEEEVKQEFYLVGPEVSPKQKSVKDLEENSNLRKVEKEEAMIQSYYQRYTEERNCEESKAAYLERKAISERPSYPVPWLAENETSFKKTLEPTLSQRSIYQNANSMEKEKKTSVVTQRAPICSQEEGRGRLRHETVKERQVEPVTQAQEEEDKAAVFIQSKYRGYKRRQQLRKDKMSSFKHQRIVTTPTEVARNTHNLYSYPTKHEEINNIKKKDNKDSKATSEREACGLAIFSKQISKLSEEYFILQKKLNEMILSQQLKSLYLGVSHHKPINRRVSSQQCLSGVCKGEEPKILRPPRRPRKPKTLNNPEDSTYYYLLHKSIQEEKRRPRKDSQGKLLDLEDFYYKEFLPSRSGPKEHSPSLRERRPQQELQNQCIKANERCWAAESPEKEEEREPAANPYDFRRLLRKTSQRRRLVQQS", "experimental": "as §1"}, "PKA": {"biological_target": "T28, PKA (Homo sapiens, UniProt P17612)", "T28 construct": "purchased Reaction Biology Corp", "experimental": "as §1"}, "PKCd": {"biological_target": "T29, PKCd (Homo sapiens, UniProt Q05655)", "T29 construct": "purchased Reaction Biology Corp", "experimental": "as §1"}, "PKCiota": {"biological_target": "T30, PKCiota (Homo sapiens, UniProt P41743)", "T30 construct": "purchased Reaction Biology Corp", "T30 sequence (P41743 whole entry)": "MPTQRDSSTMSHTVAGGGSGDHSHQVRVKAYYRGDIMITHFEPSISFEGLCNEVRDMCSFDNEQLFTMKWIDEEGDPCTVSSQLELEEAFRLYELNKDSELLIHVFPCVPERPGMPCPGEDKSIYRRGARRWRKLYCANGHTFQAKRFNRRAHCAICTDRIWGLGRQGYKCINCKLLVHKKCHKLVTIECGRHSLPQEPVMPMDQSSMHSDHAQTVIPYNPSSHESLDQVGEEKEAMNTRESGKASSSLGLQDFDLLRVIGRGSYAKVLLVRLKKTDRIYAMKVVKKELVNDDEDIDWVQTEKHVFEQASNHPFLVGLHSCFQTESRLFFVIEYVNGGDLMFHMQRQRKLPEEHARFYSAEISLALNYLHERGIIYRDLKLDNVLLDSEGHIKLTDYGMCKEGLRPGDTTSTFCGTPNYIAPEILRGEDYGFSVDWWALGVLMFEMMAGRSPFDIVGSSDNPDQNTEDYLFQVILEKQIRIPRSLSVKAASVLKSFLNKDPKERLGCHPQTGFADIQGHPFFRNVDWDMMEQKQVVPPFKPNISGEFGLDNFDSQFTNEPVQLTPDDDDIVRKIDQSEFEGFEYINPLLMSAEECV", "experimental": "as §1"}, "PKN1/PRK1": {"biological_target": "T31, PKN1/PRK1 (Homo sapiens, UniProt Q16512)", "T31 construct": "purchased Reaction Biology Corp", "T31 sequence (Q16512 whole entry)": "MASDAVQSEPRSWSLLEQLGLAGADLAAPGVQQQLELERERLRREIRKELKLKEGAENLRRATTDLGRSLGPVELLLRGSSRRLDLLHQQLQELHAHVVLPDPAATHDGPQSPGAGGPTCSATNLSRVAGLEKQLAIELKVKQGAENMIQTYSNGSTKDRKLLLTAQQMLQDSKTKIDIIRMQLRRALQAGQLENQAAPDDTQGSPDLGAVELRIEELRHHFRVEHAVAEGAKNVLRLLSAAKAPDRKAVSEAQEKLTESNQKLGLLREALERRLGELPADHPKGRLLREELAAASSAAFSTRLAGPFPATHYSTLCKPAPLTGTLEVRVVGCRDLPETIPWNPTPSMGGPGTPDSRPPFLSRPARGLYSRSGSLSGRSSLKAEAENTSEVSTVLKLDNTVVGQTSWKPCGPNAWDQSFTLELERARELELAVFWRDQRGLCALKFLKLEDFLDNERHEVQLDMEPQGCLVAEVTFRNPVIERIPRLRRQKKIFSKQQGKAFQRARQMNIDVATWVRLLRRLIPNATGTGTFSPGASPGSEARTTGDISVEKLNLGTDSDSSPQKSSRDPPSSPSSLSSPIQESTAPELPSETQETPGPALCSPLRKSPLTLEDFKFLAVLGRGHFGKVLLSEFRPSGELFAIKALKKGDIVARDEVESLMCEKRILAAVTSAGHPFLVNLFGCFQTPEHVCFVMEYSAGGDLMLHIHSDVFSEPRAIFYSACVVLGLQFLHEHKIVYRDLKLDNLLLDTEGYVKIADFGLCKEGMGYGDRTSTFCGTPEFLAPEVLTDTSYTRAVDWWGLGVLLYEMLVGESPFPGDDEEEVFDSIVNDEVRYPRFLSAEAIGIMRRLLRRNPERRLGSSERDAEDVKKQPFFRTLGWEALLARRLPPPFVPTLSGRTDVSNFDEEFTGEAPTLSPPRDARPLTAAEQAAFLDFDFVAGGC", "experimental": "as §1"}, "PKN3/PRK3": {"biological_target": "T32, PKN3/PRK3 (Homo sapiens, UniProt Q6P5Z2)", "T32 construct": "purchased Reaction Biology Corp", "experimental": "as §1"}, "PLK1": {"biological_target": "T33, PLK1 (Homo sapiens, UniProt P53350)", "T33 construct": "purchased Reaction Biology Corp", "experimental": "as §1"}, "RIPK4": {"biological_target": "T34, RIPK4 (Homo sapiens, UniProt P57078)", "T34 construct": "purchased Reaction Biology Corp", "experimental": "as §1"}, "SBK1": {"biological_target": "T35, SBK1 (Homo sapiens, UniProt Q52WX2)", "T35 construct": "purchased Reaction Biology Corp", "experimental": "as §1"}, "SRMS": {"biological_target": "T36, SRMS (Homo sapiens, UniProt Q9H3Y6)", "T36 construct": "purchased Reaction Biology Corp", "experimental": "as §1"}, "STK39/STLK3": {"biological_target": "T37, STK39/STLK3 (Homo sapiens, UniProt Q9UEW8)", "T37 construct": "purchased Reaction Biology Corp", "experimental": "as §1"}, "TBK1": {"biological_target": "T38, TBK1 (Homo sapiens, UniProt Q9UHD2)", "T38 construct": "purchased Reaction Biology Corp", "experimental": "as §1"}, "TNK1": {"biological_target": "T39, TNK1 (Homo sapiens, UniProt Q13470)", "T39 construct": "purchased Reaction Biology Corp", "experimental": "as §1"}, "TRKA": {"biological_target": "T40, TRKA (Homo sapiens, UniProt P04629)", "T40 construct": "purchased Reaction Biology Corp", "experimental": "as §1"}, "YSK4/MAP3K19": {"biological_target": "T41, YSK4/MAP3K19 (Homo sapiens, UniProt Q56UN5)", "T41 construct": "purchased Reaction Biology Corp", "experimental": "as §1"}, "p70S6Kb/RPS6KB2": {"biological_target": "T42, p70S6Kb/RPS6KB2 (Homo sapiens, UniProt Q9UBS0)", "T42 construct": "purchased Reaction Biology Corp", "T42 sequence (Q9UBS0 whole entry)": "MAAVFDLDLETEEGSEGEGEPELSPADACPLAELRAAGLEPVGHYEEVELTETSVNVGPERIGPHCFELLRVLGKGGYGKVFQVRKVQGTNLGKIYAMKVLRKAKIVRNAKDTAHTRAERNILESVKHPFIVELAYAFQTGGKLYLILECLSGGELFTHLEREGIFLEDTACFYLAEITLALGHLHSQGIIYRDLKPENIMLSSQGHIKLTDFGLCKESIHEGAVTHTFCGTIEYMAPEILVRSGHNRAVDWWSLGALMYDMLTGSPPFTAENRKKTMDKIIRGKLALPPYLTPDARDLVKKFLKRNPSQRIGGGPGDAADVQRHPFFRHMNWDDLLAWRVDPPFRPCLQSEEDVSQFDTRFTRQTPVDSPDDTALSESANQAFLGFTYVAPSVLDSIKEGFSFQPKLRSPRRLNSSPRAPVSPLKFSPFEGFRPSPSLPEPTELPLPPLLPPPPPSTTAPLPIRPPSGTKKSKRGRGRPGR", "experimental": "as §1"}},
  "data": [
    {"smiles": "Cc1ccc(NC(=O)c2ccc(CN3CCN(C)CC3)c(C(F)(F)F)c2)cc1-c1cnc2sc(N)nc2c1", "note": "[6r]", "values": [
      {"measurement": "inhibition at 1 µM", "setting": "ABL2/ARG", "value": 87.2, "unit": "%"},
      {"measurement": "inhibition at 1 µM", "setting": "AKT1", "value": 0, "unit": "%"},
      {"measurement": "inhibition at 1 µM", "setting": "ALK5/TGFBR1", "value": 0, "unit": "%"},
      {"measurement": "inhibition at 1 µM", "setting": "ARAF", "value": 98.3, "unit": "%"},
      {"measurement": "inhibition at 1 µM", "setting": "AXL", "value": 15.8, "unit": "%"},
      {"measurement": "inhibition at 1 µM", "setting": "CDK5/p35", "value": 0.7, "unit": "%"},
      {"measurement": "inhibition at 1 µM", "setting": "CHK1", "value": 9.3, "unit": "%"},
      {"measurement": "inhibition at 1 µM", "setting": "CK1g2", "value": 38.9, "unit": "%"},
      {"measurement": "inhibition at 1 µM", "setting": "DAPK2", "value": 0.3, "unit": "%"},
      {"measurement": "inhibition at 1 µM", "setting": "EPHA4", "value": 64.7, "unit": "%"},
      {"measurement": "inhibition at 1 µM", "setting": "EPHB1", "value": 65.7, "unit": "%"},
      {"measurement": "inhibition at 1 µM", "setting": "FMS", "value": 99, "unit": "%"},
      {"measurement": "inhibition at 1 µM", "setting": "GLK/MAP4K3", "value": 15, "unit": "%"},
      {"measurement": "inhibition at 1 µM", "setting": "GRK5", "value": 5.8, "unit": "%"},
      {"measurement": "inhibition at 1 µM", "setting": "HPK1/MAP4K1", "value": 0, "unit": "%"},
      {"measurement": "inhibition at 1 µM", "setting": "IKKe/IKBKE", "value": 2, "unit": "%"},
      {"measurement": "inhibition at 1 µM", "setting": "IRAK1", "value": 0, "unit": "%"},
      {"measurement": "inhibition at 1 µM", "setting": "ITK", "value": 3.8, "unit": "%"},
      {"measurement": "inhibition at 1 µM", "setting": "JNK2", "value": 31.8, "unit": "%"},
      {"measurement": "inhibition at 1 µM", "setting": "LATS1", "value": 1.5, "unit": "%"},
      {"measurement": "inhibition at 1 µM", "setting": "LOK/STK10", "value": 14, "unit": "%"},
      {"measurement": "inhibition at 1 µM", "setting": "MAK", "value": 15, "unit": "%"},
      {"measurement": "inhibition at 1 µM", "setting": "MEKK1", "value": 0, "unit": "%"},
      {"measurement": "inhibition at 1 µM", "setting": "MELK", "value": 17.1, "unit": "%"},
      {"measurement": "inhibition at 1 µM", "setting": "MST1/STK4", "value": 4.3, "unit": "%"},
      {"measurement": "inhibition at 1 µM", "setting": "MUSK", "value": 10.8, "unit": "%"},
      {"measurement": "inhibition at 1 µM", "setting": "MYO3A", "value": 15, "unit": "%"},
      {"measurement": "inhibition at 1 µM", "setting": "PKA", "value": 5.3, "unit": "%"},
      {"measurement": "inhibition at 1 µM", "setting": "PKCd", "value": 10.1, "unit": "%"},
      {"measurement": "inhibition at 1 µM", "setting": "PKCiota", "value": 8.6, "unit": "%"},
      {"measurement": "inhibition at 1 µM", "setting": "PKN1/PRK1", "value": 15.1, "unit": "%"},
      {"measurement": "inhibition at 1 µM", "setting": "PKN3/PRK3", "value": 8.6, "unit": "%"},
      {"measurement": "inhibition at 1 µM", "setting": "PLK1", "value": 0, "unit": "%"},
      {"measurement": "inhibition at 1 µM", "setting": "RIPK4", "value": 4.8, "unit": "%"},
      {"measurement": "inhibition at 1 µM", "setting": "SBK1", "value": 6.7, "unit": "%"},
      {"measurement": "inhibition at 1 µM", "setting": "SRMS", "value": 9.2, "unit": "%"},
      {"measurement": "inhibition at 1 µM", "setting": "STK39/STLK3", "value": 19.2, "unit": "%"},
      {"measurement": "inhibition at 1 µM", "setting": "TBK1", "value": 5, "unit": "%"},
      {"measurement": "inhibition at 1 µM", "setting": "TNK1", "value": 36.2, "unit": "%"},
      {"measurement": "inhibition at 1 µM", "setting": "TRKA", "value": 9.7, "unit": "%"},
      {"measurement": "inhibition at 1 µM", "setting": "YSK4/MAP3K19", "value": 0, "unit": "%"},
      {"measurement": "inhibition at 1 µM", "setting": "p70S6Kb/RPS6KB2", "value": 34, "unit": "%"}
    ]}
  ]
}
